Reference: patent publication US20090042949A1, “Indoles Useful in the Treatment of Inflammation” (priority 2005, published 2009)

Target: T1, mPGES-1 (Homo sapiens, UniProt O14684)
T1 construct: made in house; host or cells: E. coli
T1 sequence (O14684 1-152): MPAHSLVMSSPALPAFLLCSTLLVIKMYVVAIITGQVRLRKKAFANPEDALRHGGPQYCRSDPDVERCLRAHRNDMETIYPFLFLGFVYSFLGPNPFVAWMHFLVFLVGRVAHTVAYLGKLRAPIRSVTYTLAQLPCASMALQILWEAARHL
Experiment: mPGES-1 biological test (conversion of PGH2 to PGE2, HPLC analysis)
Format: biochemical
Conditions: mPGES-1 expressed in E. coli, membrane fraction; 25 min preincubation with inhibitor, 60 s with PGH2, room temperature
Method: In the assay mPGES-1 catalyses the reaction where the substrate PGH2 is converted to PGE2. mPGES-1 is expressed in E. coli and the membrane fraction is dissolved in 20 mM NaPi-buffer pH 8.0 and stored at −80° C. In the assay mPGES-1 is dissolved in 0.1 M KPi-buffer pH 7.35 with 2.5 mM glutathione. The stop solution consists of H2O/MeCN (7/3), containing FeCl2 (25 mM) and HCl (0.15 M). The assay is performed at room temperature in 96-well plates. Analysis of the amount of PGE2 is performed with reversed phase HPLC (Waters 2795 equipped with a 3.9×150 mm C18 column). The mobile phase consists of H2O/MeCN (7/3), containing TFA (0.056%), and absorbance is measured at 195 nm with a Waters 2487 UV-detector.
The following is added chronologically to each well: • 1. 100 μL mPGES-1 in KPi-buffer with glutathione. Total protein concentration: 0.02 mg/mL. • 2. 1 μL inhibitor in DMSO. Incubation of the plate at room temperature for 25 minutes. • 3. 4 μL of a 0.25 mM PGH2 solution. Incubation of the plate at room temperature for 60 seconds. • 4. 100 μL stop solution. • 180 μL per sample is analyzed with HPLC.

IC50 [µM] | SMILES
1.9 | CC(C)(C)c1ccc(-c2ccc3c(c2)cc(C(=O)NCC(=O)O)n3-c2ccc(OC3CCCC3)cc2)cc1 [Example 4, {[5-(4-tert-Butylphenyl)-1-(4-cyclopentyloxyphenyl)indole-2-carbonyl]-amino}acetic acid]
0.66 | CC(C)(C)c1ccc(-c2ccc3c(c2)cc(C(=O)NCCS(=O)(=O)O)n3-c2ccc(OC3CCCC3)cc2)cc1 [Example 2, 2-{[5-(4-tert-Butylphenyl)-1-(4-cyclopentyloxyphenyl)indole-2-carbonyl]-amino}ethanesulfonic acid]
0.74 | CN(CC(=O)O)C(=O)c1cc2cc(-c3ccc(C(C)(C)C)cc3)ccc2n1-c1ccc(OC2CCCC2)cc1 [Example 5, {[5-(4-tert-Butylphenyl)-1-(4-cyclopentyloxyphenyl)indole-2-carbonyl]-methylamino}acetic acid]
0.55 | CC(C)(C)c1ccc(-c2ccc3c(c2)cc(C(=O)Nn2cnnc2)n3-c2ccc(OC3CCCC3)cc2)cc1 [Example 12, 5-(4-tert-Butylphenyl)-1-(4-cyclopentyloxyphenyl)indole-2-carboxylic acid[1,2,4]triazol-4-ylamide]
2.7 | CC(C)Oc1ccc(-n2c(C(=O)NS(C)(=O)=O)c(Cl)c3cc(-c4ccc(C(F)(F)F)cn4)ccc32)cc1 [Example 13, N-[3-Chloro-1-(4-isopropoxyphenyl)-5-(5-trifluoromethylpyridin-2-yl)indole-2-carbonyl]methanesulfonamide]
